The source made the active and inactive calls. The rule behind the calls is not given here.

In the data set the test system is CCRIS mutagenicity, Ames/micronucleus/aberration tests. As to the kind of experiment: CCRIS mutagenicity studies.
Setting [1] is: Test System: AMES SALMONELLA TYPHIMURIUM, Strain/Indicator: TA100, Metabolic Activation: NONE, Method: STANDARD PLATE.
Setting [2] is: Test System: AMES SALMONELLA TYPHIMURIUM, Strain/Indicator: TA98, Metabolic Activation: NONE, Method: STANDARD PLATE.
Setting [3] is: Test System: AMES SALMONELLA TYPHIMURIUM, Strain/Indicator: TA98, Metabolic Activation: RAT, LIVER, S-9, AROCLOR 1254, Method: STANDARD PLATE.
[4] abbreviates: Test System: AMES SALMONELLA TYPHIMURIUM, Strain/Indicator: TA100, Metabolic Activation: RAT, LIVER, S-9, AROCLOR 1254, Method: STANDARD PLATE.
[5] abbreviates: Test System: AMES SALMONELLA TYPHIMURIUM, Strain/Indicator: TA1535, Metabolic Activation: NONE, Method: STANDARD PLATE.
[6] abbreviates: Test System: AMES SALMONELLA TYPHIMURIUM, Strain/Indicator: TA1535, Metabolic Activation: RAT, LIVER, S-9, AROCLOR 1254, Method: STANDARD PLATE.
The mark [7] stands for this setting: Test System: AMES SALMONELLA TYPHIMURIUM, Strain/Indicator: TA1537, Metabolic Activation: NONE, Method: STANDARD PLATE.
[8] abbreviates: Test System: AMES SALMONELLA TYPHIMURIUM, Strain/Indicator: TA1538, Metabolic Activation: NONE, Method: STANDARD PLATE.
[9] abbreviates: Test System: AMES SALMONELLA TYPHIMURIUM, Strain/Indicator: TA1538, Metabolic Activation: RAT, LIVER, S-9, AROCLOR 1254, Method: STANDARD PLATE.
[10] abbreviates: Test System: AMES SALMONELLA TYPHIMURIUM, Strain/Indicator: TA97, Metabolic Activation: NONE, Method: STANDARD PLATE.

For `COc1c(O)cc2oc(-c3ccc(O)cc3)cc(=O)c2c1O`, the mutagenic call is, setting by setting: (Test System: AMES SALMONELLA TYPHIMURIUM, Strain/Indicator: TA98, Metabolic Activation: NONE, Method: PREINCUBATION) “inactive; negative”; (Test System: AMES SALMONELLA TYPHIMURIUM, Strain/Indicator: TA98, Metabolic Activation: RAT LIVER S-9, SODIUM BARBITAL AND BETA-NAPHTHAFLAVONE, Method: PREINCUBATION) “inactive; negative”; (Test System: AMES SALMONELLA TYPHIMURIUM, Strain/Indicator: TA100, Metabolic Activation: NONE, Method: PREINCUBATION) “inactive; negative”; (Test System: AMES SALMONELLA TYPHIMURIUM, Strain/Indicator: TA100, Metabolic Activation: RAT LIVER S-9, SODIUM BARBITAL AND BETA-NAPHTHAFLAVONE, Method: PREINCUBATION) “inactive; negative”.
Take `CCOP(=O)(OCC)N1[C@@H]2c3ccccc3-c3ccccc3[C@@H]21` (stereo partly specified): the mutagenic call reads like this: under setting [1], “active; positive”; (Test System: CHINESE HAMSTER V-79, Strain/Indicator: V-79/6-THIOGUANINE, Metabolic Activation: NONE, Method: STANDARD PLATE) “active; positive”.
Consider `O=[N+]([O-])c1ccccc1C(F)(F)F`, for which the mutagenic call is “inactive; negative” under setting [2]; “inactive; negative” under setting [3]; “inactive; negative” under setting [1]; “inactive; negative” under setting [4]; “inactive; negative” under setting [5]; “inactive; negative” under setting [6]. The mutagenic call reads like this: under setting [7], “inactive; negative”; (Test System: AMES SALMONELLA TYPHIMURIUM, Strain/Indicator: TA1537, Metabolic Activation: RAT, LIVER, S-9, AROCLOR 1254, Method: STANDARD PLATE) “inactive; negative”; under setting [8], “inactive; negative”; under setting [9], “inactive; negative”.
Consider `CCNc1nc(Cl)nc(NC(C)(C)C#N)n1`, for which the mutagenic call by setting is: (End Point: In vitro chromosomal aberrations, Test System: Human lymphocytes, Metabolic Activation: None) “inactive; negative for aberrations but cell cycle delay at 250 and 350 ug/ml doses”; (End Point: In vitro chromosomal aberrations, Test System: Human lymphocytes, Metabolic Activation: Rat, liver, S-9, Aroclor 1254) “inactive; negative”; (Test System: Ames Salmonella typhimurium, Strain/Indicator: TA97a, Metabolic Activation: None, Method: Plate incorporation) “inactive; negative, cytotoxicity at highest dose”; (Test System: Ames Salmonella typhimurium, Strain/Indicator: TA97a, Metabolic Activation: Rat, liver, S-9, Aroclor 1254, Method: Plate incorporation) “inactive; negative, cytotoxicity at highest dose”; (Test System: Ames Salmonella typhimurium, Strain/Indicator: TA98, Metabolic Activation: None, Method: Plate incorporation) “inactive; negative, cytotoxicity at highest dose”; (Test System: Ames Salmonella typhimurium, Strain/Indicator: TA98, Metabolic Activation: Rat, liver, S-9, Aroclor 1254, Method: Plate incorporation) “inactive; negative, cytotoxicity at highest dose”. Also, the mutagenic call (Test System: Ames Salmonella typhimurium, Strain/Indicator: TA100, Metabolic Activation: None, Method: Plate incorporation) is “inactive; negative, cytotoxicity at highest dose”; the mutagenic call (Test System: Ames Salmonella typhimurium, Strain/Indicator: TA100, Metabolic Activation: Rat, liver, S-9, Aroclor 1254, Method: Plate incorporation) was “inactive; negative, cytotoxicity at highest dose”; the mutagenic call (Test System: Ames Salmonella typhimurium, Strain/Indicator: TA1535, Metabolic Activation: None, Method: Plate incorporation) is “inactive; negative, cytotoxicity at highest dose”; the mutagenic call (Test System: Ames Salmonella typhimurium, Strain/Indicator: TA1535, Metabolic Activation: Rat, liver, S-9, Aroclor 1254, Method: Plate incorporation) is “inactive; negative, cytotoxicity at highest dose”; the mutagenic call (Test System: UDS HUMAN PERIPHERAL BLOOD LYMPHOCYTES, Strain/Indicator: THY INCORP, Metabolic Activation: NONE, Method: LIQUID SCINTILLATION) is “inactive; negative”; the mutagenic call (Test System: UDS HUMAN PERIPHERAL BLOOD LYMPHOCYTES, Strain/Indicator: THY INCORP, Metabolic Activation: RAT, LIVER, S-9, PHENOBARBITAL AND BETA-NAPHTHOFLAVONE, Method: LIQUID SCINTILLATION) is “inactive; negative”. For the setting “Test System: UDS rat primary hepatocytes, Strain/Indicator: Thymidine incorporation, Metabolic Activation: None, Method: Autoradiography”, the mutagenic call was “active; positive at >/= 1 um”.
On to `CC(=O)O[C@H]1C(=O)[C@@]2(C)[C@H]([C@H](OC(=O)c3ccccc3)[C@]3(O)C[C@H](OC(=O)[C@H](O)[C@@H](NC(=O)c4ccccc4)c4ccccc4)C(C)=C1C3(C)C)[C@]1(OC(C)=O)CO[C@@H]1C[C@@H]2O`, for which the mutagenic call reads like this: (End Point: IN VITRO CHROMOSOMAL ABERRATIONS, Test System: PERIPHERAL HUMAN BLOOD LYMPHOCYTES, Metabolic Activation: NONE) “active; positive (ploidy changes)”; (End Point: In vitro micronucleus, Test System: Human lymphoblastoid TK6 cells, Metabolic Activation: None) “active; positive (p<0.001)”; (End Point: In vivo micronucleus, Test System: Micronucleated, binucleated and multinucleated hepatocytes, Species: Mouse, Strain/Sex: ddY/Male, Route: Intravenous) “active; positive for micronucleated, binucleated and multinucleated cells when agent adm”; under setting [10], “inactive; negative”; (Test System: AMES SALMONELLA TYPHIMURIUM, Strain/Indicator: TA97, Metabolic Activation: S-9, Method: STANDARD PLATE) “inactive; negative”; under setting [2], “inactive; negative”. Further, the mutagenic call is, setting by setting: (Test System: AMES SALMONELLA TYPHIMURIUM, Strain/Indicator: TA98, Metabolic Activation: S-9, Method: STANDARD PLATE) “inactive; negative”; under setting [1], “inactive; negative”; (Test System: AMES SALMONELLA TYPHIMURIUM, Strain/Indicator: TA100, Metabolic Activation: S-9, Method: STANDARD PLATE) “inactive; negative”; (Test System: AMES SALMONELLA TYPHIMURIUM, Strain/Indicator: TA102, Metabolic Activation: NONE, Method: STANDARD PLATE) “inactive; negative”; (Test System: AMES SALMONELLA TYPHIMURIUM, Strain/Indicator: TA102, Metabolic Activation: S-9, Method: STANDARD PLATE) “inactive; negative”; (Test System: Mouse lymphoma, Strain/Indicator: L5178Y (Tk+/Tk-), Metabolic Activation: None, Method: Microwell) “active; positive”.
With `Nc1cccc2c1C(=O)c1cccc(N)c1C2=O`, the mutagenic call was “inactive; negative” under setting [2]; “active; positive” under setting [3]; “inactive; negative” under setting [1]; “inactive; negative” under setting [4]; “inactive; negative” under setting [5]; “inactive; negative” under setting [6]. For the same compound, the mutagenic call runs as follows: under setting [7], “inactive; negative”; under setting [8], “inactive; negative”; under setting [9], “active; positive”.
In the case of `C#CCOCC[n+]1ccccc1/C=N/O`, the mutagenic call is, setting by setting: under setting [10], “inactive; negative”; (Test System: AMES SALMONELLA TYPHIMURIUM, Strain/Indicator: TA97, Metabolic Activation: RAT, LIVER, S-9, Method: STANDARD PLATE) “inactive; negative”; under setting [1], “inactive; negative”; (Test System: AMES SALMONELLA TYPHIMURIUM, Strain/Indicator: TA100, Metabolic Activation: RAT, LIVER, S-9, Method: STANDARD PLATE) “inactive; negative”; (Test System: AMES SALMONELLA TYPHIMURIUM, Strain/Indicator: TA104, Metabolic Activation: NONE, Method: STANDARD PLATE) “inactive; negative”; (Test System: AMES SALMONELLA TYPHIMURIUM, Strain/Indicator: TA104, Metabolic Activation: RAT, LIVER, S-9, Method: STANDARD PLATE) “inactive; negative”. For the same compound, the mutagenic call is “inactive; negative” under setting [7]; “inactive; negative” (Test System: AMES SALMONELLA TYPHIMURIUM, Strain/Indicator: TA1537, Metabolic Activation: RAT, LIVER, S-9, Method: STANDARD PLATE); “inactive; negative” under setting [8]; “inactive; negative” (Test System: AMES SALMONELLA TYPHIMURIUM, Strain/Indicator: TA1538, Metabolic Activation: RAT, LIVER, S-9, Method: STANDARD PLATE).
As for `C#C[C@]1(O)C=C[C@H]2[C@@H]3CCC4=CC(=O)CC[C@@H]4[C@H]3CC[C@@]21CC`, the mutagenic call (End Point: IN VIVO MICRONUCLEUS, Test System: BONE MARROW POLYCHROMATIC ERYTHROCYTES, Species: MOUSE, Strain/Sex: NMRI/FEMALE, Route: INTRAGASTRIC) was “inactive; negative”.

(Values after PubChem BioAssay AID1259407 (Chemical Carcinogenesis Research Information System (CCRIS), 2018).)
